# Assays:
# galium = assay: Test C postemergence; type: in vivo, Galium aparine; details: 10 days
# Method in brief: (§1)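 Greenhouse herbicide screen, 10-day duration. Test chemicals in solvent/surfactant blend were sprayed onto soil at sowing (pre) or onto 2–10 cm seedlings at one to two leaves (post); injury scored visually against controls, 0 no effect to 100 complete control.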
# pigweed, palmer [1] = assay: Test C preemergence; type: in vivo, Amaranthus palmeri; details: 0 to 100 scale (0 no effect, 100 complete control)
# Method in brief: as §1
# soybean [2] = assay: Test C postemergence; type: in vivo, Glycine max; details: 10 days
# Method in brief: as §1
# soybean [3] = assay: Test C preemergence; type: in vivo, Glycine max; details: 0 to 100 scale (0 no effect, 100 complete control)
# Method in brief: as §1
# ducksalad = assay: Test D flooded paddy test; type: in vivo, Heteranthera limosa; details: 250 g ai/ha, applied to paddy water, visual rating after 13 to 14 days, scale 0 to 100 (0 no effect, 100 complete control)
# Method in brief: (§2)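 2-leaf plants; flood 3 cm above soil; compound dosed into paddy water; greenhouse 13–14 d; visual rating vs controls, 0–100 (100 = complete control); dash = not tested.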
# pigweed, palmer [4] = assay: Test C postemergence; type: in vivo, Amaranthus palmeri; details: 10 days
# Method in brief: as §1
# kochia [5] = assay: Test C preemergence; type: in vivo, Bassia scoparia; details: 0 to 100 scale (0 no effect, 100 complete control)
# Method in brief: as §1
# blackgrass [6] = assay: Test C postemergence; type: in vivo, Alopecurus myosuroides; details: 10 days
# Method in brief: as §1
# ragweed [7] = assay: Test C postemergence; type: in vivo, Ambrosia artemisiifolia; details: 10 days
# Method in brief: as §1
# horseweed = assay: Test C postemergence; type: in vivo, Erigeron canadensis; details: 10 days
# Method in brief: as §1
# blackgrass [8] = assay: Test C preemergence; type: in vivo, Alopecurus myosuroides; details: 0 to 100 scale (0 no effect, 100 complete control)
# Method in brief: as §1
# kochia [9] = assay: Test C postemergence; type: in vivo, Bassia scoparia; details: 10 days
# Method in brief: as §1
# ryegrass, Italian [10] = assay: Test C postemergence; type: in vivo, Lolium multiflorum; details: 10 days
# Method in brief: as §1
# rice = assay: Test D flooded paddy test; type: in vivo, Oryza sativa; details: 250 g ai/ha, applied to paddy water, visual rating after 13 to 14 days, scale 0 to 100 (0 no effect, 100 complete control)
# Method in brief: as §2
# ryegrass, Italian [11] = assay: Test C preemergence; type: in vivo, Lolium multiflorum; details: 0 to 100 scale (0 no effect, 100 complete control)
# Method in brief: as §1
# ragweed [12] = assay: Test C preemergence; type: in vivo, Ambrosia artemisiifolia; details: 0 to 100 scale (0 no effect, 100 complete control)
# Method in brief: as §1
# oat, wild [13] = assay: Test C preemergence; type: in vivo, Avena fatua; details: 0 to 100 scale (0 no effect, 100 complete control)
# Method in brief: as §1
# corn [14] = assay: Test C postemergence; type: in vivo, Zea mays; details: 10 days
# Method in brief: as §1
# corn [15] = assay: Test C preemergence; type: in vivo, Zea mays; details: 0 to 100 scale (0 no effect, 100 complete control)
# Method in brief: as §1
# barnyardgrass [16] = assay: Test C postemergence; type: in vivo, Echinochloa crusgalli; details: 10 days
# Method in brief: as §1
# sedge, umbrella = assay: Test D flooded paddy test; type: in vivo, Cyperus difformis; details: 250 g ai/ha, applied to paddy water, visual rating after 13 to 14 days, scale 0 to 100 (0 no effect, 100 complete control)
# Method in brief: as §2
# barnyardgrass [17] = assay: Test D flooded paddy test; type: in vivo, Echinochloa crus-galli; details: 250 g ai/ha, applied to paddy water, visual rating after 13 to 14 days, scale 0 to 100 (0 no effect, 100 complete control)
# Method in brief: as §2
# green foxtail [18] = assay: Test C preemergence; type: in vivo, Setaria viridis; details: 0 to 100 scale (0 no effect, 100 complete control)
# Method in brief: as §1
# green foxtail [19] = assay: Test C postemergence; type: in vivo, Setaria viridis; details: 10 days
# Method in brief: as §1
# wheat [20] = assay: Test C postemergence; type: in vivo, Triticum aestivum; details: 10 days
# Method in brief: as §1
# wheat [21] = assay: Test C preemergence; type: in vivo, Triticum aestivum; details: 0 to 100 scale (0 no effect, 100 complete control)
# Method in brief: as §1
# oat, wild [22] = assay: Test C postemergence; type: in vivo, Avena fatua; details: 10 days
# Method in brief: as §1
# barnyardgrass [23] = assay: Test C preemergence; type: in vivo, Echinochloa crusgalli; details: 0 to 100 scale (0 no effect, 100 complete control)
# Method in brief: as §1
# [24] = 125 g ai/ha, postemergence, 0 to 100 scale, 0 no effect, 100 complete control
# [25] = Postemergence, 500 g ai/ha, visual 0 to 100 scale (0 no effect, 100 complete control)
# [26] = Preemergence, 500 g ai/ha, visual rating after 10 days
# [27] = Test C, preemergence, 125 g ai/ha
smiles,measurement,setting,value
CC(C)c1ncn(-c2cc3c(c(C(=O)N4C[C@H](C)Oc5c(Cl)cccc54)c2)CCC3)n1 [Compound 174],"Plant response rating, Galium",galium; [24],100
same,"Plant response rating, Galium",galium; [25],100
same,"Plant response rating, Pigweed, Palmer","pigweed, palmer [1]; [26]",100
same,"Pigweed, Palmer plant response rating","pigweed, palmer [1]; [27]",100
same,"Plant response rating, Soybean",soybean [2]; [24],100
same,"Plant response rating, Soybean",soybean [2]; [25],100
same,"Plant response rating, Soybean",soybean [3]; [26],100
same,Soybean plant response rating,soybean [3]; [27],70
same,"Plant response rating, Ducksalad (Flood)",ducksalad,0
same,"Plant response rating, Pigweed, Palmer","pigweed, palmer [4]; [24]",90
same,"Plant response rating, Pigweed, Palmer","pigweed, palmer [4]; [25]",100
same,"Plant response rating, Kochia",kochia [5]; [26],90
same,Kochia plant response rating,kochia [5]; [27],70
same,"Plant response rating, Blackgrass",blackgrass [6]; [24],60
same,"Plant response rating, Blackgrass",blackgrass [6]; [25],90
same,"Plant response rating, Ragweed",ragweed [7]; [24],60
same,"Plant response rating, Ragweed",ragweed [7]; [25],70
same,"Plant response rating, Horseweed",horseweed; [24],0
same,"Plant response rating, Horseweed",horseweed; [25],30
same,"Plant response rating, Blackgrass",blackgrass [8]; [26],80
same,Blackgrass plant response rating,blackgrass [8]; [27],70
same,"Plant response rating, Kochia",kochia [9]; [24],90
same,"Plant response rating, Kochia",kochia [9]; [25],100
same,"Plant response rating, Ryegrass, Italian","ryegrass, Italian [10]; [24]",50
same,"Plant response rating, Ryegrass, Italian","ryegrass, Italian [10]; [25]",70
same,"Plant response rating, Rice (Flood)",rice,0
same,"Plant response rating, Ryegrass, Italian","ryegrass, Italian [11]; [26]",90
same,"Ryegrass, Italian plant response rating","ryegrass, Italian [11]; [27]",80
same,"Plant response rating, Ragweed",ragweed [12]; [26],10
same,Ragweed plant response rating,ragweed [12]; [27],0
same,"Plant response rating, Oat, Wild","oat, wild [13]; [26]",80
same,"Oat, Wild plant response rating","oat, wild [13]; [27]",20
same,"Plant response rating, Corn",corn [14]; [24],70
same,"Plant response rating, Corn",corn [14]; [25],80
same,"Plant response rating, Corn",corn [15]; [26],50
same,Corn plant response rating,corn [15]; [27],10
same,"Plant response rating, Barnyardgrass",barnyardgrass [16]; [24],50
same,"Plant response rating, Barnyardgrass",barnyardgrass [16]; [25],60
same,"Plant response rating, Sedge, Umbrella (Flood)","sedge, umbrella",0
same,"Plant response rating, Barnyardgrass (Flood)",barnyardgrass [17],0
same,"Plant response rating, Foxtail, Green",green foxtail [18]; [26],100
same,"Foxtail, Green plant response rating",green foxtail [18]; [27],100
same,"Plant response rating, Foxtail, Green",green foxtail [19]; [24],70
same,"Plant response rating, Foxtail, Green",green foxtail [19]; [25],90
same,"Plant response rating, Wheat",wheat [20]; [24],20
same,"Plant response rating, Wheat",wheat [20]; [25],40
same,"Plant response rating, Wheat",wheat [21]; [26],10
same,Wheat plant response rating,wheat [21]; [27],0
same,"Plant response rating, Oat, Wild","oat, wild [22]; [24]",50
same,"Plant response rating, Oat, Wild","oat, wild [22]; [25]",70
same,"Plant response rating, Barnyardgrass",barnyardgrass [23]; [26],100
same,Barnyardgrass plant response rating,barnyardgrass [23]; [27],80

# Reference: US20260262643A1, “HERBICIDAL BENZOXAZINES” (FMC CORPORATION, priority 2022, published 2026)
